Our source for the half-life, microsomal CLint and GI50 values is patent publication US11992497B2 (priority 2021, dated 2024).

What is called half-life is how long it takes for the measured level to halve. In general, microsomal CLint refers to the capacity of the preparation to metabolise the compound, expressed as a volume cleared per time. Usually GI50 stands for the concentration at which growth is held to half of that of the control.

Each structure is given as a SMILES string. Like-named read-outs stand apart in the source and are kept apart here. A value given as a limit tells only on which side of the number the result lay.

In one data set the target is T1, UGT1A3 (Homo sapiens, UniProt P35503).
T1 sequence (P35503 29-534): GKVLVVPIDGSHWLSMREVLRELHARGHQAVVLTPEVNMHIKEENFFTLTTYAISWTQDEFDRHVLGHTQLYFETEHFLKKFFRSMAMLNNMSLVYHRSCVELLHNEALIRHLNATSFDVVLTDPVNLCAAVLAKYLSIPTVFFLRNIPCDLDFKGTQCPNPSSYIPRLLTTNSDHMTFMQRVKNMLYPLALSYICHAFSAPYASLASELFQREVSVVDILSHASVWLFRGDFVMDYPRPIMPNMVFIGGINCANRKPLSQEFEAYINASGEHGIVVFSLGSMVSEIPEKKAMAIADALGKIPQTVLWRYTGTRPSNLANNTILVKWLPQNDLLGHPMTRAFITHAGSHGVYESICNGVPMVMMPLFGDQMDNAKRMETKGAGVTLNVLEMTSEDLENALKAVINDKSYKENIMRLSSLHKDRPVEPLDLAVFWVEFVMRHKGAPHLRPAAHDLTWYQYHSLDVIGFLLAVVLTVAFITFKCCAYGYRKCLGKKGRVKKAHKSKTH
Nature of the data set: UGT reaction phenotyping, recombinant Supersomes. To be noted: recombinant enzyme, pH 7.4. How it is done: Experimental Summary: UGT Reaction Phenotyping (7 Isoforms).
Experimental Procedure: cDNA expressed human UGT enzyme preparations (Supersomes) supplied by BD Biosciences were obtained and stored at −80° C. prior to use. The specific isoforms were chosen by the performing laboratory based on published guidelines. They are considered the clinically relevant of the UGT isoforms (E. Kasteel et al. Human variability in isoform-specific UDP-glucuronosyltransferases: markers of acute and chronic exposure, polymorphisms and uncertainty factors. Arch Toxicol. 2020; 94(8): 2637-2661)
Supersomes in 0.1 M Tris buffer pH 7.4, alamethicin (44.6 μg/mL) and test compound (final concentration of 5 μM; final DMSO concentration ≤0.1%) were pre-incubated at 37° C. prior to the addition of UDGPA (final concentration 2 mM) to initiate the reaction. Incubations were also performed using control Supersomes (no UGT enzymes present) to reveal any non-enzymatic degradation. Compounds known to be metabolized specifically by each UGT isoform were used as control compounds (7-hydroxy-4-trifluoromethylcoumarin, all but UGT1A4, or trifluoperazine for UGT1A4).
CBG or Compound 1 were incubated in duplicate for 0, 10, 20, 40 and 60 min with each isoform. The reactions were stopped by the addition of methanol containing an analytical internal standard at the time points specified in the table above. Stopped reactions were kept on ice for at least ten minutes and the samples were centrifuged to remove precipitated protein. Supernatants were analyzed by LC-MS/MS methodology developed by the performing laboratory to quantitate the parent remaining.
The change in CBG concentration were used to calculate the Half life (t1/2 in min) and the intrinsic clearance ([…]) as shown in the following table (S. C, Khojasteh et.al., Drug Metabolism and Pharmacokinetics Quick Guide, Springer, NY, 2011), Intrinsic Clearance (CIint) is a measure of the ability of hepatocytes to eliminate drug irrespective other factors such as blood flow or protein binding. The calculations were the same as those used in Example 3A.

The next data set deals with HCT116. Nature of the data set: GI50 by MTS assay. The data set is classed as cell-based. To be noted: Homo sapiens, HCT-116. How it is done: (§1) For MTS assay, the compounds have been tested at 8 concentrations on 4 colon cancer cell lines for 48 hours. The compounds, concentrations and colon cancer cell line panel tested are the following: • CBG: 0 μM, 1.25 μM, 2.5 μM, 5 μM, 10 μM, 20 μM, 40 μM, and 80 μM. • Compound 1: 0 μM, 1.25 μM, 2.5 μM, 5 μM, 10 μM, 20 μM, 40 μM, and 80 μM. • Compound 2: 0 μM, 1.25 μM, 2.5 μM, 5 μM, 10 μM, 20 μM, 40 μM, and 80 μM. • Colon cancer cell line panel: SW620, HCT15, HT29, HCTl16
(§2) Four colon cancer cell lines of SW620, HCT15, HT29, and HCT116 were included in the colon cancer cell line panel.
(§3) CBG, compound 1 and compound 2 were dissolved in DMSO at a concentration of 10 mM and stored at −20° C.
(§4) Evaluation of DM compounds treatment-induced growth inhibition was performed to determine the GI50 of four colon cancer cell lines with MTS assay or clonogenic assay. Each experiment was repeated in triplicate. In GraphPad Prism, data were log-transformed and fit with a nonlinear curve to calculate the GI50.
(§5) MTS assay. cells were plated at 96 well plates at a density of 1,000 cells per well. After 24 hours, cells were treated with DM compounds at increasing concentrations or DMSO vehicle and incubated for 48 hours. 20 μl of MTS reagent (Promega) was then added and incubated for 2 hours. The absorbance was measured with a microplate reader at 490 nm. Each experiment was repeated in triplicate. In GraphPad Prism, data were log-transformed and fit with a nonlinear curve to calculate the GI50.
On the technique in general: Tetrazolium assays rely on reduction of a dye to a coloured formazan, in cell work by metabolically active cells.

A further data set deals with HCT15. Nature of the data set: GI50 by MTS assay. The data set is classed as cell-based. As to conditions: Homo sapiens, HCT-15. How it is done:
as §1, §2, §3, §4, §5

A further data set deals with HT29. Nature of the data set: GI50 by MTS assay. As to conditions: Homo sapiens, HT-29. The data set is classed as cell-based. How it is done: as §1, §2, §3, §4, §5
For the next data set, the system named is SW620. Nature of the data set: GI50 by MTS assay. The data set is classed as cell-based. To be noted: Homo sapiens, SW-620. How it is done:
as §1, §2, §3, §4, §5

[1] abbreviates: HCTl116 cells, 48 hours, read-out: GI50 (MTS assay).
Setting [2] is: HCT15 cells, 48 hours, read-out: GI50 (MTS assay).
[3] abbreviates: MTS assay, HCT15, 48 hours, average of N1-N3, read-out: GI50 AVG.
Where [4] appears, read: MTS assay, HCT15, 48 hours, replicate N1, read-out: GI50 N1.
The mark [5] stands for this setting: MTS assay, HCT15, 48 hours, replicate N2, read-out: GI50 N2.
[6] abbreviates: MTS assay, HCT15, 48 hours, replicate N3, read-out: GI50 N3.
The mark [7] stands for this setting: HT29 cells, 48 hours, read-out: GI50 (MTS assay).
The mark [8] stands for this setting: MTS assay, HT29, 48 hours, average of N1-N3, read-out: GI50 AVG.
Setting [9] is: MTS assay, HT29, 48 hours, replicate N1, read-out: GI50 N1.
Setting [10] is: MTS assay, HT29, 48 hours, replicate N2, read-out: GI50 N2.
[11] abbreviates: MTS assay, HT29, 48 hours, replicate N3, read-out: GI50 N3.
[12] abbreviates: MTS assay, SW620, 48 hours, average of N1-N3, read-out: GI50 AVG.
Setting [13] is: MTS assay, SW620, 48 hours, replicate N1, read-out: GI50 N1.
Where [14] appears, read: MTS assay, SW620, 48 hours, replicate N2, read-out: GI50 N2.
Where [15] appears, read: MTS assay, SW620, 48 hours, replicate N3, read-out: GI50 N3.
Where [16] appears, read: SW620 cells, 48 hours, read-out: GI50 (MTS assay).
The mark [17] stands for this setting: MTS assay, HCT116, 48 hours, replicate N1, read-out: GI50 N1.
[18] abbreviates: MTS assay, HCT116, 48 hours, replicate N2, read-out: GI50 N2.
Setting [19] is: MTS assay, HCT116, 48 hours, replicate N3, read-out: GI50 N3.

Turning to `CCCCCc1cc(O)c(C/C=C(\C)CCC=C(C)C)c(OC)c1` [Compound 1, (E)-2-(3,7-dimethylocta-2,6-dien-1-yl)-3-methoxy-5-pentylphenol], on UGT1A3, the half-life at 1 µM turned out to be 108 min. In addition, the microsomal CLint at 1 µM on UGT1A3 is 12.8 µL/min/mg. Moreover, the GI50 with HCT116 (setting [1]) was found to be 10.3 ± 0.24 µM; with HCT15 (setting [2]) it was 10 ± 0.52 µM; in the data set on HCT15 (setting [3]) it was 10 µM; in the data set with HCT15 (setting [4]), 10.1 µM; in the data set with HCT15 (setting [5]), 9.46 µM; in the data set on HCT15 (setting [6]), 10.5 µM. In addition, the concentration for 50% growth inhibition (GI50) amounted to 10.2 ± 0.4 µM with HT29 (setting [7]); 10.2 µM in the data set on HT29 (setting [8]); 9.84 µM in the data set on HT29 (setting [9]); 10.1 µM with HT29 (setting [10]); 10.6 µM in the data set with HT29 (setting [11]); 8.76 µM in the data set on SW620 (setting [12]). For the same compound, the GI50 came to 8.47 µM in the data set on SW620 (setting [13]), 7.55 µM in the data set on SW620 (setting [14]), 10.3 µM with SW620 (setting [15]) and 8.76 ± 1.38 µM in the data set with SW620 (setting [16]).

As to `O=c1cc(C(F)(F)F)c2ccc(O)cc2o1` [7-OH4trifluoromethylcoumarin, 7-hydroxy-4-trifluoromethylcoumarin], on UGT1A3, the half-life at 1 µM was 51.8 min and the microsomal CLint at 1 µM was determined as 26.8 µL/min/mg.

In the case of `CCCCCc1cc(O)c(C/C=C(\C)CCC=C(C)C)c(O)c1` [CBG, cannabigerol], the half-life at 1 µM on UGT1A3 turned out to be 44.1 min. Also, at UGT1A3, the microsomal CLint at 1 µM turned out to be 31.4 µL/min/mg. In addition, the 50% growth inhibitory concentration (GI50) was determined as 41.4 ± 1.87 µM in the data set on HCT116 (setting [1]); 41.4 µM with HCT116 (MTS assay, HCT116, 48 hours, average of N1-N3, read-out: GI50 AVG); 40 µM with HCT116 (setting [17]); 44.1 µM with HCT116 (setting [18]); 40.2 µM with HCT116 (setting [19]); 43.6 ± 5.74 µM in the data set with HCT15 (setting [2]). In addition, the GI50 in the data set with HCT15 (setting [3]) is 43.6 µM; with HCT15 (setting [4]), 50.2 µM; in the data set with HCT15 (setting [5]) it was 30.2 µM; in the data set with HCT15 (setting [6]), 40.7 µM; with HT29 (setting [7]), 43.6 ± 4.02 µM; in the data set on HT29 (setting [8]) it was 43.6 µM. Further, the GI50 is 42.6 µM with HT29 (setting [9]); 48 µM in the data set on HT29 (setting [10]); 40.1 µM in the data set on HT29 (setting [11]); 39 µM in the data set on SW620 (setting [12]); 39.5 µM in the data set with SW620 (setting [13]); 39.4 µM in the data set with SW620 (setting [14]). Besides, the concentration for 50% growth inhibition (GI50) worked out at 38 µM in the data set with SW620 (setting [15]) and 40 ± 0.84 µM with SW620 (setting [16]).

Take `CCCCCc1cc(OC)c(C/C=C(\C)CCC=C(C)C)c(OC)c1` [Compound 2, (E)-2-(3,7-dimethylocta-2,6-dien-1-yl)-1,3-dimethoxy-5-pentylbenzene]: the concentration for 50% growth inhibition (GI50) with HCT116 (setting [1]) is above 80 µM; with HCT116 (setting [17]) it was above 80 µM; in the data set on HCT116 (setting [18]), above 80 µM; in the data set on HCT116 (setting [19]), above 80 µM; in the data set on HCT15 (setting [2]), above 80 µM; with HCT15 (setting [3]), 35.9 µM. For the same compound, the GI50 in the data set with HCT15 (setting [4]), with HCT15 (setting [5]), in the data set with HCT15 (setting [6]), in the data set with HT29 (setting [7]), in the data set on HT29 (setting [9]) and in the data set on HT29 (setting [10]) was above 80 µM each time. Also, the GI50 with HT29 (setting [11]), in the data set with SW620 (setting [13]), in the data set with SW620 (setting [14]), in the data set on SW620 (setting [15]) and in the data set on SW620 (setting [16]) was above 80 µM in each case.
